Assay [1] addresses T1, Human P2X7 (hP2X7) receptor (Homo sapiens, UniProt Q99572).
T1 construct: myc-His (from the pcDNA3.1/myc-HisA vector); expressed in transfected cells
T1 sequence (Q99572 1-595): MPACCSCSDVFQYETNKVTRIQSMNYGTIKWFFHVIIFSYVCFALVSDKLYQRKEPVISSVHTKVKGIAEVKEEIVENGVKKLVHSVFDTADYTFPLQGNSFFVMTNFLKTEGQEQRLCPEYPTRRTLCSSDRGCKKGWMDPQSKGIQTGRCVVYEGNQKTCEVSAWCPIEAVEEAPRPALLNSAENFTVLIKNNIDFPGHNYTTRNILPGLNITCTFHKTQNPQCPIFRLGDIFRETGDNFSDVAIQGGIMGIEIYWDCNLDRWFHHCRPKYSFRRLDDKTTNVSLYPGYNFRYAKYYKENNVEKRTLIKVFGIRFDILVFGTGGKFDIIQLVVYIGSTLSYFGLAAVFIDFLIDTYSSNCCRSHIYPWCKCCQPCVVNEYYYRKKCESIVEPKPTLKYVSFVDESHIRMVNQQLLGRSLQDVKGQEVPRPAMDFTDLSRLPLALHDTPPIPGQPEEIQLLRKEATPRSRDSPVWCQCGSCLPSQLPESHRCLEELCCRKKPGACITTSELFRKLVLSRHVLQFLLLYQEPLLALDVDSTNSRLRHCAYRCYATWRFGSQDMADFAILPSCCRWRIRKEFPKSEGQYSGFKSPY
Put plainly: Dye assay: BzATP-induced Yo-Pro-1 uptake in HEK293 cells stably expressing hP2X7. The format is cell-based. The conditions noted are these: 90 min incubation. Summed up: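 HEK293 cells stably expressing cloned human P2X7 (595 aa) were preincubated 30 min with compound, then given 2 μM Yo-Pro-1 and 0.1 mM BzATP (final) for 90 min. Dye uptake read by fluorescence (ex 485/em 535 nm); IC50 derived from % inhibition versus log concentration.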

Assay [2] has as its system IL-1β in supernatants of peripheral blood mononuclear cells. Put plainly: IL-1β assay: BzATP- or ATP-induced IL-1β release from LPS-treated human peripheral blood mononuclear cells. The format is cell-based. The conditions noted are these: 2 h; IL-1β in supernatants of LPS-treated human PBMC; BzATP (1 mM) or ATP (5 mM), 120 min. The method, then: Human whole blood from healthy volunteers was diluted with equal volume of saline and peripheral blood mononuclear cells were collected by using a Limphoprep tube (Daiichi Pure Chemicals), washed with physiological saline and seeded onto a 96-well plate with a medium containing 1-10 ng/mL LPS (SIGMA). 30 minutes later, the cells were treated with varying concentrations of various compounds and incubated for 30 minutes. Then, the cells were treated with BzATP (final concentration 1 mM) or ATP (final concentration 5 mM) and incubated for 120 minutes. The cells were centrifugated to collect supernatents, and the concentration of IL-1β in supernatants were determined by IL-1β HTRF kit (CIS biointernational). The % inhibition rates were calculated and plotted against the logarithms of the concentrations to determine IC50.

The mark [3] stands for this setting: BzATP (0.1 mM)-induced Yo-Pro-1 uptake, compounds 30 min pre-treatment.
Where [4] appears, read: BzATP 0.1 mM, Yo-Pro-1 2 μM, 30 min pre-treatment.

Each structure is given as a SMILES string.

Broadly, the IC50 is the point on the concentration scale where inhibition reaches its midpoint.

On to `C[C@@H]1[C@H]2C[C@@H](C[C@H]1Nc1cnn(CCNCc3ccncc3)c(=O)c1Br)C2(C)C` [Synthetic Example 47, 4-Bromo-2-[2-(pyridin-4-ylmethylamino)ethyl]-5-[(1R,2R,3R,5S)-2,6,6-trimethylbicyclo[3.1.1]hept-3-ylamino]pyridazin-3(2H)-one], for which the IC50 in assay [1] (setting [3]) was 21 nM; in assay [2], 61 nM.
For `C[C@@H]1[C@H]2C[C@@H](C[C@H]1Nc1cnn(CC(=O)NCc3ccncc3)c(=O)c1Br)C2(C)C` [compound 9], the IC50 was 3.5 nM in assay [1] (setting [3]) and 47 nM in assay [2].
For the compound `CC(NC(=O)Cn1ncc(N[C@@H]2C[C@@H]3C[C@H]([C@H]2C)C3(C)C)c(Br)c1=O)c1ccncc1` (stereo partly shown) [compound 39], the IC50 came out at 6.3 nM in assay [1] (setting [3]) and 19 nM in assay [2].
For `CCN(CC)c1ccc(C(=O)Cn2ncc(N[C@@H]3C[C@@H]4C[C@H]([C@H]3C)C4(C)C)c(Br)c2=O)cc1` [compound 84], in that order: 4.1 nM and 82 nM.
Turning to `CCC(NC(=O)Cn1ncc(N[C@@H]2C[C@@H]3C[C@H]([C@H]2C)C3(C)C)c(Br)c1=O)c1ccncc1` (stereo partly shown) [compound 171], the results for the IC50 in assay [1] (setting [3]) and in assay [2] were 4.3 nM and 33 nM, respectively.
For `CC1C(Nc2cnn(CC(=O)NCc3ccnnc3)c(=O)c2Br)CC2CC1C2(C)C` (stereo not shown) [compound 214], the values for the IC50 in assay [1] (setting [3]) and in assay [2] were 3.9 nM and 39 nM, respectively.
On to `COc1cnccc1CNC(=O)Cn1ncc(N[C@@H]2C[C@@H]3C[C@H]([C@H]2C)C3(C)C)c(Br)c1=O` [compound 216], for which the results for the IC50 in assay [1] (setting [3]) and in assay [2] were 12 nM and 38 nM, respectively.
For `C[C@@H]1[C@H]2C[C@@H](C[C@H]1Nc1cnn(CC(=O)N[C@H](C)c3ccncc3)c(=O)c1Cl)C2(C)C` [compound 230], in that order: 2.8 nM and 3.1 nM.
In the case of `CC(NC(=O)Cn1ncc(N[C@@H]2C[C@@H]3C[C@H]([C@H]2C)C3(C)C)c(Cl)c1=O)c1ccncc1Cl` (stereo partly shown) [compound 264], the IC50 is 1.4 nM in assay [1] (setting [3]) and 3.3 nM in assay [2].
Turning to `C[C@@H]1[C@H]2C[C@@H](C[C@H]1Nc1cnn(CC(=O)NCc3ccncc3N(C)C)c(=O)c1Cl)C2(C)C` [compound 277], the results for the IC50 in assay [1] (setting [3]) and in assay [2] were 3.7 nM and 4.3 nM, respectively.
For `O=C(Cn1ncc(NC2C3CCCC2CCC3)c(Br)c1=O)NCc1ccncc1` (stereo not shown) [compound 325], in that order: 8.9 nM and 40 nM.
For the compound `CCC(NC(=O)Cn1ncc(N[C@@H]2C[C@@H]3C[C@@H](C3(C)C)[C@]2(C)O)c(Br)c1=O)c1ccncc1` (stereo partly shown) [compound 358], the concentration for half-maximal inhibition (IC50) turned out to be 10 nM in assay [1] (setting [3]) and 38 nM in assay [2].
For the compound `CC(NC(=O)Cn1ncc(NC2C3CCCC2CCC3)c(Cl)c1=O)c1ccncc1Cl` (stereo not shown) [compound 378], the IC50 in assay [1] (setting [3]) and in assay [2] was 1.5 nM in each case.
In the case of `Cc1cnncc1CNC(=O)Cn1ncc(N[C@@H]2C[C@@H]3C[C@H]([C@H]2C)C3(C)C)c(Cl)c1=O` [compound 432], the IC50 came out at 2.1 nM in assay [1] (setting [4]) and 17 nM in assay [2].
Turning to `C[C@@H]1[C@H]2C[C@@H](C[C@H]1Nc1cnn(CC(=O)NCc3ccnnc3Cl)c(=O)c1Cl)C2(C)C` [compound 433], the results for the IC50 in assay [1] (setting [4]) and in assay [2] were 6.2 nM and 51 nM, respectively.
Regarding `C[C@@H]1[C@H]2C[C@@H](C[C@H]1Nc1cnn(CC(=O)NCc3ccnnc3N(C)C)c(=O)c1Cl)C2(C)C` [compound 435], the IC50 was found to be 3.2 nM in assay [1] (setting [4]) and 36 nM in assay [2].
For `C[C@@H]1[C@H]2C[C@@H](C[C@H]1Nc1cnn(CC(=O)NCc3ccncc3S(C)(=O)=O)c(=O)c1Cl)C2(C)C` [compound 442], in that order: 1.7 nM and 27 nM.

The values above are taken from patent US8440666B2, “Pyridazinone compounds and P2X7 receptor inhibitors” (Nissan Chemical Industries, Ltd., priority 2007, dated 2013).
